Values of other authors as cited in patent US20100317677A1, “Methods of Treating a Microbial Infection by Modulating RNase-L Expression and/or Activity” (priority 2007, published 2010).

Target: T1, RNase-L (Homo sapiens, UniProt Q05823)
T1 sequence (Q05823 1-741): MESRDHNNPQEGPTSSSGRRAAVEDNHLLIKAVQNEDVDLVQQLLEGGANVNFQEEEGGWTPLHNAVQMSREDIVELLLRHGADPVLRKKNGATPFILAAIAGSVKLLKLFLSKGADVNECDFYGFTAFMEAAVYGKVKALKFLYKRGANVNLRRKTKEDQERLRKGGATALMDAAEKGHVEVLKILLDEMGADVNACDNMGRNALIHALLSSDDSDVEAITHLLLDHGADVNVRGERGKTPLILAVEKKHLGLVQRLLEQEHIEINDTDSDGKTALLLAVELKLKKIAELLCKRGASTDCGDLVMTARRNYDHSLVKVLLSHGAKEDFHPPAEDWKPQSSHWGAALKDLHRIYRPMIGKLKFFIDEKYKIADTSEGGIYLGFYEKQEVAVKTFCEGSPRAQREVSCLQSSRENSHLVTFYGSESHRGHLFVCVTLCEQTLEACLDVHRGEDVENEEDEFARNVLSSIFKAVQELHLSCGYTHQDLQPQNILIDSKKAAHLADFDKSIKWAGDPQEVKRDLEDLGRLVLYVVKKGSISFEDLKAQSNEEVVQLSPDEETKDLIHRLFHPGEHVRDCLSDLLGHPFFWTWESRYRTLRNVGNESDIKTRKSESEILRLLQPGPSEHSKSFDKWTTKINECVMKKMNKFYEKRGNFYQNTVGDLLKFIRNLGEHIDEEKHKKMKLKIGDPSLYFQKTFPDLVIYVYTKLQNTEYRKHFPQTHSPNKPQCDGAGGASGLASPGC
Conditions: statement in words, cited from Thakur et al. 2007 and other literature

px5′A(2′p5′A)n [2-5A]
Effect on the activity of RNase-L: increases the activity of RNase-L
